Assay results: ChEMBL document CHEMBL5465560, “Selectivity Literature for EUbOPEN Chemogenomic Library” (2024)
Where a chain is given by its changes, count along the chain named. Values belong to the compound of their own block, whether it stands above or below them.

Tests used:
[1] = target: Dual specificity mitogen-activated protein kinase kinase 2 (Homo sapiens) (UniProt P36507); assay: Selectivity interaction (KinomeScan (DiscoverX)) EUB0000618a MAP2K2; conditions: at 10 µM
[2] = target: T1, Ephrin type-A receptor 3 (Homo sapiens) (UniProt P29320); assay: Selectivity interaction (KinomeScan (DiscoverX)) EUB0000595a EPHA3; conditions: at 10 µM
T1 sequence (whole entry): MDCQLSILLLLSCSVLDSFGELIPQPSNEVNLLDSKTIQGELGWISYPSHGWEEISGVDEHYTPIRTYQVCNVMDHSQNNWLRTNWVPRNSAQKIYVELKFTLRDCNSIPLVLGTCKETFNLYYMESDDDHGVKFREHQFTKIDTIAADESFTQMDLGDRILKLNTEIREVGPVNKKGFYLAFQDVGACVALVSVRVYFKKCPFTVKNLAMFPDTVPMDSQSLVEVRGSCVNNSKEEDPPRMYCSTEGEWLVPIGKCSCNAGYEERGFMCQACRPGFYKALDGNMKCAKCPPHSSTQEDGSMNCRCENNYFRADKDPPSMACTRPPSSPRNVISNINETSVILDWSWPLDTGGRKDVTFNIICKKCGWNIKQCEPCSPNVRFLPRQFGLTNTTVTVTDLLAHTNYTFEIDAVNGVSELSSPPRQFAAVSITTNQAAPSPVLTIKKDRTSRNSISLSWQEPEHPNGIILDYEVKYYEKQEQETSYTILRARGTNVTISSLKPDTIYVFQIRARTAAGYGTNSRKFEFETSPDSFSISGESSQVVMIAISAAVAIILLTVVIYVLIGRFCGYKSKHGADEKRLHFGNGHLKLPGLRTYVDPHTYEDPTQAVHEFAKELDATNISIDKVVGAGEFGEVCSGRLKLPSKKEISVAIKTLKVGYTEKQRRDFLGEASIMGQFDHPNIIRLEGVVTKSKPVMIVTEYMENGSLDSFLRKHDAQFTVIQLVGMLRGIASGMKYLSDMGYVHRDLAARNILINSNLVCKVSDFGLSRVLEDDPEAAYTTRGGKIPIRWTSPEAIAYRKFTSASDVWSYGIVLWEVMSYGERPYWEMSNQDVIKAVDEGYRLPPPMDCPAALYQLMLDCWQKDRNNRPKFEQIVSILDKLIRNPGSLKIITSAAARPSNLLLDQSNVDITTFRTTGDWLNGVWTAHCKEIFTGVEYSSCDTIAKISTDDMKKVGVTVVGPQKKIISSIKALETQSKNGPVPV

[3] = tested on: T2, Discoidin domain-containing receptor 2 (Homo sapiens), Q16832 [N456S]; assay: (§1) Selectivity interaction (ProQinase) EUB0000171b DDR2
T2 sequence (whole entry): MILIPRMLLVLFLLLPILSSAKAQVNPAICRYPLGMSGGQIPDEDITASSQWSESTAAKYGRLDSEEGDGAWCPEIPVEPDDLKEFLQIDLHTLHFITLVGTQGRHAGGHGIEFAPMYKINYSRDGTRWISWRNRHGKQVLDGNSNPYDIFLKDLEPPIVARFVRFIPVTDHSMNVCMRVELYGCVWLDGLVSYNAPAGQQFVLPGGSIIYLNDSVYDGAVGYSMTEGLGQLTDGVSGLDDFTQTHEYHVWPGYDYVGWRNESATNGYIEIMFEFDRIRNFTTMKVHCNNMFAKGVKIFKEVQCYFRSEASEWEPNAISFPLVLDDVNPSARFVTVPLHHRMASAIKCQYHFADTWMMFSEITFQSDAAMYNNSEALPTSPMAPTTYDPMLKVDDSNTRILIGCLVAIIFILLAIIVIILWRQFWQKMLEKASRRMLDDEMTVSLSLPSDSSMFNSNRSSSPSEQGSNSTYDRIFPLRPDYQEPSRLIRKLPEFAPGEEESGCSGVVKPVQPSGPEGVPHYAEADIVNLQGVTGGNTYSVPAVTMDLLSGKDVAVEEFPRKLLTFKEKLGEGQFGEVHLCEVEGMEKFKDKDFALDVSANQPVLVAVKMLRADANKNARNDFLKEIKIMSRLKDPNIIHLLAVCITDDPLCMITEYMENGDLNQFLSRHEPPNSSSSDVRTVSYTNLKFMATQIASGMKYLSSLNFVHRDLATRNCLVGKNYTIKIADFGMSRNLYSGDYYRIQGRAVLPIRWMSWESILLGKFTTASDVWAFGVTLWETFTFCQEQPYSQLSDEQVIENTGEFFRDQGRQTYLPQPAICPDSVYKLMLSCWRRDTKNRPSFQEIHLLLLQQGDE

[4] = target: T3, Discoidin domain-containing receptor 2 (Homo sapiens) (UniProt Q16832); assay: as §1
T3 sequence (whole entry): T2 sequence (whole entry) with S456N

Sequence of Dual specificity mitogen-activated protein kinase kinase 2 (Homo sapiens) (P36507 whole entry): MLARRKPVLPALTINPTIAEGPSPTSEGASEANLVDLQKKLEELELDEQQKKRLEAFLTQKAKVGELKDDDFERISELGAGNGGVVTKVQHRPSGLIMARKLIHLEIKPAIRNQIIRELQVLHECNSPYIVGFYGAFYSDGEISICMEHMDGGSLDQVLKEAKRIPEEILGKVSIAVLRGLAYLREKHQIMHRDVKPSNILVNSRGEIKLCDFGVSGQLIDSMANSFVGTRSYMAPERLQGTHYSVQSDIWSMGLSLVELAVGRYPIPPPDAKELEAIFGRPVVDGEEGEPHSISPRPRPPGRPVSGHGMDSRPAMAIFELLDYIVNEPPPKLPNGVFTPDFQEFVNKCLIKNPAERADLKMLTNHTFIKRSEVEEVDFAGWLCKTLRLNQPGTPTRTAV

Compound: O[C@H]1CC[C@H](Nc2ncc3nc(Nc4c(F)cc(F)cc4F)n([C@H]4CCOC4)c3n2)CC1
% of control [1]: 100%

Compound: COCC(=O)NC/C=C/c1ccc2ncnc(Nc3ccc(Oc4ccc(C)nc4)c(C)c3)c2c1 [CP-724714]
% of control [2]: 97%

% of control ([3]; at 1 µM): 88% | % of control ([3]; at 5 µM): 67% | % of control ([4]; at 1 µM): 90% | % of control ([4]; at 5 µM): 76%
Compound: C=CC(=O)Nc1cccc(C(=O)Nc2ccc(Nc3cc(-c4[nH]c(SC)nc4C)ccn3)cc2)c1
